Test results taken from patent publication US20230240297A1, “SELECTIVE HERBICIDES BASED ON SUBSTITUTED ISOXAZOLIN CARBOXAMIDES AND CYPROSULFAMIDE” (Bayer Aktiengesellschaft, priority 2020, published 2023).

What was measured:
Type in all cases: in vivo, maize
ZEAMA Sileno [1] = experiment: Tank-mix; post-emergence, crop damage with and without safener; conditions: for HER effect + SAF / HER effect: Final assessment; for HER effect: no safener
Experimental: (§1) Seeds of crops (spring wheat, TRZAS; spring barley, HORVS; maize, ZEAMA) were placed in sandy loam soil in peat pots, covered with soil and cultivated in a greenhouse under good growth conditions. Two to three weeks after sowing, the test plants were treated at the 1 to 3-leaf stage. The herbicide/safener active compound combinations according to the invention, formulated as wettable powders or emulsion concentrates, and, in parallel tests, the correspondingly formulated individual active compounds were sprayed onto the green parts of the plants in various dosages using an amount of water of 300 1/ha (converted).
(§2) The pots were returned under good growing conditions in a glasshouse and a visual assessment of herbicidal effects was made at intervals from 1 to 3 weeks after herbicide application (DAT = days after treatment). Assessment was on a percentage basis in comparison with untreated control plants (0% = no injury, 100% = complete kill).

ZEAMA Sileno [2] = experiment: Seed treatment with safener; post-emergence herbicide application; design: Reduction [Difference]: scale not given here; conditions: Final assessment; for Reduction [%] / Reduction [Difference]: Cyprosulfamide 0.5 g a.i./kg seed; for Reduction [Difference]: damage without safener - damage with safener; for HER effect + SAF (crop damage with safener): Cyprosulfamide seed treatment 0.5 g a.i./kg seed; for HER effect (crop damage, herbicide without safener): no safener
Experimental: For the safener seed treatment, sufficient seeds of the respective crops (spring wheat, TRZAS; spring barley, HORVS; maize, ZEAMA) were weighed into screw top glass bottles approximately twice the volume of the seeds.
The specified safeners, formulated as wettable powder (WP) were weighed out so that the specified rates (g a.i./kg seed) would be obtained, dissolved in water (1 ml water per 10 g of seeds), and added to the seeds to produce a slurry.
The bottles were capped and then placed in an overhead shaker (set at medium speed for ca. 60 minutes) so that the seeds were evenly coated with the slurry. The bottles were uncapped and the seeds were either placed on paper and dried for an interval of 3-4 hours prior to sowing, or directly sown. Seeds were placed in sandy loam soil in pots of a diameter of 7-8 cm, covered with soil, and cultivated in a greenhouse under good growth conditions.
Post-emergence application of the specified herbicides was done when the plants had reached growth stage BBCH11-13, on two sets of plants:
a) seed treatment with safener, as described above b) no safener treatment
The herbicides were formulated as WP and sprayed onto the green parts of the plants as an aqueous suspension at an equivalent water application rate of 300 1/ha, with addition of wetting agent and adjuvants (e.g. Mero, 1.5 1/ha; ammonium sulphate, 2 kg/ha)
After application, the test plants were kept in the greenhouse under good growth conditions.
Values in the table below are mean values of at least 2 replicates.

ZEAMA Sileno [3] = experiment: Treatment 1 day before (safener applied one day before herbicide, post-emergence); design: key to Reduction [Difference]: percentage points of visually scored % crop damage vs untreated control; conditions: for Reduction [%] / Reduction [Difference]: cyprosulfamide 100 g a.i./ha 1 day before; for HER effect + SAF: cyprosulfamide 100 g a.i./ha applied 1 day before; for HER effect + SAF / HER effect: Final assessment; for HER effect: no safener
Excerpt: Seeds of crops (spring wheat, TRZAS; spring barley, HORVS; maize, ZEAMA) were placed in sandy loam soil in pots of a diameter of 7-8 cm, covered with soil, and cultivated in a greenhouse under good growth conditions until plants were at the 1-3 leaf stage (BBCH 11-13). For split safener and herbicide treatment, first the safener was applied followed by the herbicide treatment on the following day. The safener and herbicides were formulated as WP and sprayed onto the green parts of the plants as an aqueous suspension at an equivalent water application rate of 300 1/ha, with addition of wetting agent and adjuvants (e.g. Mero, 1.5 1/ha; ammonium sulphate, 2 kg/ha). An equivalent set of plants was treated with the herbicides but without the prior safener treatment.
After application, the test plants were kept in the greenhouse under good growth conditions. 10 and 21 days after treatment (DAT) with the herbicide, % crop damage observed on the treated plants was scored visually in comparison to control plants that had not received any safener or herbicide treatment.

ZEAMA Abraxas = experiment: Tank-mix; post-emergence, crop damage with and without safener; conditions: for HER effect + SAF / HER effect: Final assessment; for HER effect: no safener
Experimental: as §1, §2

[4] = HER 2 g a.i./ha, cyprosulfamide 50 g a.i./ha
[5] = HER 8 g a.i./ha, cyprosulfamide 50 g a.i./ha
[6] = HER dose 2 g a.i./ha + cyprosulfamide 50 g a.i./ha tank-mix
[7] = HER dose 8 g a.i./ha + cyprosulfamide 50 g a.i./ha tank-mix
[8] = HER 32 g a.i./ha, cyprosulfamide 100 g a.i./ha
[9] = HER dose 32 g a.i./ha + cyprosulfamide 100 g a.i./ha tank-mix

| SMILES | Reduction [%] (ZEAMA Sileno [2]; HER dose 2 g a.i./ha) | Reduction [Difference] (ZEAMA Sileno [2]; HER dose 2 g a.i./ha) | HER effect + SAF (crop damage with safener) (ZEAMA Sileno [2]; HER dose 2 g a.i./ha) | HER effect (crop damage, herbicide without safener) (ZEAMA Sileno [2]; HER dose 2 g a.i./ha) | Reduction [%] (ZEAMA Sileno [2]; HER dose 8 g a.i./ha) | Reduction [Difference] (ZEAMA Sileno [2]; HER dose 8 g a.i./ha) | HER effect + SAF (crop damage with safener) (ZEAMA Sileno [2]; HER dose 8 g a.i./ha) | HER effect (crop damage, herbicide without safener) (ZEAMA Sileno [2]; HER dose 8 g a.i./ha) | Reduction [%] (ZEAMA Sileno [2]; HER dose 32 g a.i./ha) | Reduction [Difference] (ZEAMA Sileno [2]; HER dose 32 g a.i./ha) | HER effect + SAF (crop damage with safener) (ZEAMA Sileno [2]; HER dose 32 g a.i./ha) | HER effect (crop damage, herbicide without safener) (ZEAMA Sileno [2]; HER dose 32 g a.i./ha) | Reduction [%] (ZEAMA Sileno [3]; HER 32 g a.i./ha) | Reduction [Difference] (ZEAMA Sileno [3]; HER 32 g a.i./ha) | HER effect + SAF (ZEAMA Sileno [3]; HER dose 32 g a.i./ha) | HER effect (ZEAMA Sileno [3]; HER dose 32 g a.i./ha) | Reduction [%] (ZEAMA Abraxas; [5]) | Reduction [Difference] (ZEAMA Abraxas; [5]) | Reduction [%] (ZEAMA Abraxas; [8]) | Reduction [Difference] (ZEAMA Abraxas; [8]) | other results |
| --- | --- | --- | --- | --- | --- | --- | --- | --- | --- | --- | --- | --- | --- | --- | --- | --- | --- | --- | --- | --- | --- |
| CCOC(=O)C1C=CC(NC(=O)C2(CF)CC(c3cc(F)cc(F)c3)=NO2)C1 (stereo not shown) [Example 1.17] | 100% | 45 | 0% | 45% | 95% | 90 | 5% | 95% | 82% | 70 | 15% | 85% | 59% | 50 | 35% | 85% | – | – | – | – | Reduction [%] (ZEAMA Sileno [1]; [4]): 67%; Reduction [Difference] (ZEAMA Sileno [1]; HER 2 g a.i./ha, cyprosulfamide 50 g a.i./ha, damage without safener - damage with safener): 30; Reduction [%] (ZEAMA Sileno [1]; [5]): 53%; Reduction [Difference] (ZEAMA Sileno [1]; [5]): 50; HER effect + SAF (ZEAMA Sileno [1]; [6]): 15%; HER effect (ZEAMA Sileno [1]; HER dose 2 g a.i./ha, 0% = no injury, 100% = complete kill): 45%; HER effect + SAF (ZEAMA Sileno [1]; [7]): 45%; HER effect (ZEAMA Sileno [1]; HER dose 8 g a.i./ha): 95%; Reduction [%] (ZEAMA Sileno [3]; HER 2 g a.i./ha): 56%; Reduction [Difference] (ZEAMA Sileno [3]; HER 2 g a.i./ha): 25; Reduction [%] (ZEAMA Sileno [3]; HER 8 g a.i./ha): 63%; Reduction [Difference] (ZEAMA Sileno [3]; HER 8 g a.i./ha): 60; HER effect + SAF (ZEAMA Sileno [3]; HER dose 2 g a.i./ha): 20%; HER effect (ZEAMA Sileno [3]; HER dose 2 g a.i./ha): 45%; HER effect + SAF (ZEAMA Sileno [3]; HER dose 8 g a.i./ha): 35%; HER effect (ZEAMA Sileno [3]; HER dose 8 g a.i./ha): 95% |
| CC1(C(=O)NC2C=CC(C(=O)OCCSCc3ccccc3)C2)CC(c2cc(F)cc(F)c2)=NO1 (stereo not shown) [Example 1.27] | – | – | – | – | 83% | 25 | 5% | 30% | 75% | 45 | 15% | 60% | 67% | 40 | 20% | 60% | – | – | – | – | Reduction [%] (ZEAMA Sileno [1]; [8]): 67%; Reduction [Difference] (ZEAMA Sileno [1]; [8]): 40; HER effect + SAF (ZEAMA Sileno [1]; [9]): 20%; HER effect (ZEAMA Sileno [1]; HER dose 32 g a.i./ha): 60% |
| C=CC1(C(=O)NC2C=CC(C(=O)O)C2)CC(c2cc(F)cc(F)c2)=NO1 (stereo not shown) [Example 1.58] | 100% | 20 | 0% | 20% | – | – | – | – | 64% | 45 | 25% | 70% | – | – | – | – | 87% | 54 | 68% | 65 | HER effect + SAF (ZEAMA Abraxas; [7]): 8%; HER effect (ZEAMA Abraxas; HER dose 8 g a.i./ha): 62%; HER effect + SAF (ZEAMA Abraxas; [9]): 30%; HER effect (ZEAMA Abraxas; HER dose 32 g a.i./ha): 95% |
| C=CC1(C(=O)NC2C=C(C(=O)OCCOC)OC2)CC(c2cc(C)cc(F)c2)=NO1 (stereo not shown) [Example 1.89] | – | – | – | – | – | – | – | – | 88% | 22 | 3% | 25% | – | – | – | – | 100% | 30 | 67% | 30 | HER effect + SAF (ZEAMA Abraxas; [7]): 0%; HER effect (ZEAMA Abraxas; HER dose 8 g a.i./ha): 30%; HER effect + SAF (ZEAMA Abraxas; [9]): 15%; HER effect (ZEAMA Abraxas; HER dose 32 g a.i./ha): 45% |
| C=CC1(C(=O)NC2C=C(C(=O)OC)OC2)CC(c2cc(C)cc(C)c2)=NO1 (stereo not shown) [Example 1.90] | – | – | – | – | 73% | 61 | 22% | 83% | 68% | 64 | 30% | 94% | – | – | – | – | – | – | – | – | Reduction [%] (ZEAMA Abraxas; [4]): 88%; Reduction [Difference] (ZEAMA Abraxas; [4]): 22; HER effect + SAF (ZEAMA Abraxas; [6]): 3%; HER effect (ZEAMA Abraxas; HER dose 2 g a.i./ha): 25% |
